Columns and labels:
Type in all cases: cell-based, human
p-S6K, p-S6, LC3 [1] = test: Cell signaling assay, western blot, HT29; conditions: 0, 5, and 10 μM, FIG. 7b
Protocol: (§1) Cells treated with various concentrations (0, 5, and 10 μM) of lomitapide were lysed with RIPA buffer containing a protease-inhibitor cocktail. The whole-cell lysate was incubated on ice for 30 minutes. After centrifugation at 4° C. and 13,300×g for 15 minutes, the supernatant was collected. For use as controls, HCT116, SW480, HT29, MDA-MB-231, and MDA-MB-468 cells were treated with 1 μM of torin, known as an mTOR inhibitor.
(§2) For western blot analysis, the supernatant was loaded onto 10% SDS-PAGE gel. The separated proteins were blotted onto a PVDF membrane. Then, the blots were incubated with antibodies at 4° C. for 12 hours as follows (Table 2).
(§3) Then, the blots were washed with TBST (a mixture of tris-buffered saline (TBS) and Tween 20), incubated with horseradish peroxidase-conjugated secondary antibody (Cell signaling) at 37° C. for 1 hour, and washed, followed by detecting enhanced chemiluminescence (ECL; Amersham).

p-S6K, p-S6, LC3 [2] = test: Cell signaling assay, western blot, MDA-MB-231; conditions: 0, 5, and 10 μM, FIG. 7c
Protocol: as §1, §2, §3

SW480 = test: Viability assay for lomitapide-treated colorectal cells (CellTiter-Glo, 24); conditions: 0, 1, 2, 5, and 10 μM, dose-dependent
Protocol: (§4) NCM460, HCT116, HT29, and SW480 cell lines were each seeded at a density of 10^4 cells/well into 96-well plates and incubated 37° C. for 24 hours before treatment with various concentrations (0, 1, 2, 5, and 10 μM) of lomitapide (Sigma Aldrich, Missouri, USA). After treatment of the cells with lomitapide at 37° C. for 24 in a 5% CO2 atmosphere, 100 μL of an assay reagent (CellTiter-Glo® Reagent) was added to each well. Then, luminescence was read using VICTOR X Multilabel Reader (PerkinElmer, Massachusetts, USA) and used to calculate cell viability (%). Results are depicted in FIGS. 2 to 4.

HCT116 = test: as above
Protocol: as §4

HT29 = test: as above; conditions: 0, 1, 2, 5, and 10 μM, dose-dependent
Protocol: as §4

p-AMPK, LC3, p-ULK1 = test: Autophagy assay, western blot, HCT116; conditions: 0, 5, and 10 μM, FIG. 8
Protocol: HCT116 cells treated with various concentration (0, 5, and 10 μM) of lomitapide were analyzed for change in cell autophagy-related cell signaling pathway by western blotting. To this end, the supernatant obtained in Example 3 was loaded onto 10% SDS-PAGE gel. The proteins thus separated were blotted onto a PVDF membrane. Then, the blots were incubated with anti-p-AMPK, anti-LC3, anti-p-ULK1 antibodies (Cell Signaling Technology, Massachusetts, USA) at 4° C. for 12 hours. Afterward, the blots were washed with TBST (a mixture of tris-buffered saline (TBS) and Tween 20), incubated with horseradish peroxidase-conjugated secondary antibody (Cell signaling) at 37° C. for 1 hour, and washed, followed by detecting enhanced chemiluminescence (ECL; Amersham).

p-S6K, p-S6, LC3 [3] = test: Cell signaling assay, western blot, SNU1; conditions: 0, 5, and 10 μM, FIG. 7f
Protocol: Cells treated with various concentration (0, 5, and 10 μM) of lomitapide were lysed with RIPA buffer containing a protease-inhibitor cocktail. The whole-cell lysate was incubated on ice for 30 minutes. After centrifugation at 4° C. and 13,300×g for 15 minutes, the supernatant was collected. For use as controls, cells were treated with 1 μM of torin, known as an mTOR inhibitor.
For western blot analysis, the supernatant was loaded onto 10% SDS-PAGE gel. The separated proteins were blotted onto a PVDF membrane. Then, the blots were incubated with antibodies at 4° C. for 12 hours as follows (Table 3).
as §3

For O=C(NC1CCN(CCCCC2(C(=O)NCC(F)(F)F)c3ccccc3-c3ccccc32)CC1)c1ccccc1-c1ccc(C(F)(F)F)cc1 [lomitapide, N-(2,2,2-trifluoroethyl)-9-[4-[4-[[[4′-(trifluoromethyl)[1,1′-biphenyl]2-yl]carbonyl]amino]-1-piperidinyl]butyl]-9H-fluoren-9-carboxamide], the “conversion from LC3I into LC3II” value (p-S6K, p-S6, LC3 [1]) was “increased induction of conversion from LC3I into LC3II”, the “phosphorylation levels of target proteins (p-S6K and p-S6)” value (p-S6K, p-S6, LC3 [1]) was “remarkably decreased phosphorylation levels” and the “conversion from LC3I into LC3II” value (p-S6K, p-S6, LC3 [2]) was “increased induction of conversion from LC3I into LC3II”. The “phosphorylation levels of target proteins (p-S6K and p-S6)” value (p-S6K, p-S6, LC3 [2]) was “remarkably decreased phosphorylation levels”, the cell viability (SW480) was “reduced the viability” and the cell viability (HCT116; HCT116, 0, 1, 2, 5, and 10 μM, dose-dependent) was “reduced the viability”. The “cell viability of cancer cells compared to normal cells” value (HCT116; HCT116 vs normal human colonic epithelial cells (NCM460), FIG. 2) was “decreased cell viability”, the cell viability (HT29) was “reduced the viability” and the “conversion from LC3I into LC3II” value (p-AMPK, LC3, p-ULK1) was “significantly increased induction of conversion from LC3I into LC3II”. The “phosphorylation level of AMPK” value (p-AMPK, LC3, p-ULK1; dose-dependent) was “remarkably increased”, the “conversion from LC3I into LC3II” value (p-S6K, p-S6, LC3 [3]) was “increased induction of conversion from LC3I into LC3II” and the “phosphorylation levels of target proteins (p-S6K, p-S6)” value (p-S6K, p-S6, LC3 [3]; dose-dependent) was “remarkably decreased phosphorylation levels”.

— patent publication US12582638B2, “Pharmaceutical composition for treating cancer, containing mTOR-signaling inhibitor as active ingredient” (KOREA ADVANCED INSTITUTE OF SCIENCE AND TECHNOLOGY, priority 2020, dated 2026)
